Reference: patent US7070767B2, “Fossorial rodent control compositions and methods” (priority 1998, dated 2006)

Test system: rodents
Assay: effectiveness of respiratory irritants in the foam in hastening the death of rodents
Assay type: in vivo
Conditions: rodents that inhaled the foam/irritant combination
Description: Furthermore, it is available in commercial quantities in a finely ground form which disperses quickly and evenly into the concentrated foaming agent and remains suspended as the foaming agent is diluted and aerated. Alternative respiratory irritants may share all of or many of these characteristics and include ground horseradish and powdered elemental sulphur.
In the preferred embodiment, a concentrated composition is made by mixing the foaming agent in liquid concentrate form with the mustard powder, preferably in an approximate 3:1 ratio by weight, with the goal of achieving a 1% (w:v) foaming agent concentration and approximately 0.3% to 0.5% (w:v) mustard concentration when the concentrate is diluted to a use level. The proprietary concentrated foaming agents have specific gravities of approximately 1.029 kg per liter and it is generally recommended by the respective manufacturers that it be used in 0.1% to 1% concentration.

[S] [powdered elemental sulphur, elemental sulphur]
effectiveness as respiratory irritant in the foam: effective but less so than the ground mustard
